For five compounds, T/C results are on record in PubChem BioAssay AID330 (DTP/NCI, 2004).

The assay deals with P388 leukemia ip, CD2F1 mice, survival T/C. Nature of the assay: NCI In Vivo Anticancer Drug Screen. Data for tumor model P388 Leukemia (intraperitoneal) in CD2F1 (CDF1) mice. Particulars: endpoint: median survival time, higher = longer survival. In short, it runs like this: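 Mice carrying the transplanted tumor received test compound or vehicle. Survival was recorded in each group, and the value is the treated-group measurement divided by that of the vehicle-treated control group.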

Values joined by “and” are separate entries in the source; they are usually repeats but may differ in a detail not shown here. Equal entries are not always repeated. Toxic doses and inconclusive results are not listed.

`CC(C)CCCCCCCCCCCCC(=O)NCC(=O)NC1C(O)C(O)C(Nc2ncnc3nc[nH]c23)OC1C(O)CO` (stereo not given): the T/C is, setting by setting: (dose: 0.06 mg/kg/injection, schedule: Q01DX009 (ip), vehicle: Klucel (hydroxypropylcellulose) (HPC)) 100 % of control; (dose: 0.13 mg/kg/injection, schedule: Q01DX009 (ip), vehicle: Klucel (hydroxypropylcellulose) (HPC)) 100 % of control; (dose: 0.25 mg/kg/injection, schedule: Q01DX009 (ip), vehicle: Klucel (hydroxypropylcellulose) (HPC)) 100 % of control; (dose: 0.25 mg/kg/injection, schedule: Q01DX009 (ip), vehicle: distilled water + alcohol) 154 % of control; (dose: 0.25 mg/kg/injection, schedule: Q01DX009 (ip), vehicle: saline with Tween-80) 158 % of control; (dose: 0.25 mg/kg/injection, schedule: Q03HX008 (ip), vehicle: Klucel (hydroxypropylcellulose) (HPC)) 100 % of control. For the same compound, the T/C (dose: 0.25 mg/kg/injection, schedule: Q03HX016 (ip), vehicle: Klucel (hydroxypropylcellulose) (HPC)) was 100 % of control; the T/C (dose: 0.25 mg/kg/injection, schedule: Q03HX024 (ip), vehicle: Klucel (hydroxypropylcellulose) (HPC)) is 95 % of control; the T/C (dose: 0.5 mg/kg/injection, schedule: Q01DX009 (ip), vehicle: Klucel (hydroxypropylcellulose) (HPC)) was 100 % of control; the T/C (dose: 0.5 mg/kg/injection, schedule: Q01DX009 (ip), vehicle: distilled water + Tween-80) is 154 % of control; the T/C (dose: 0.5 mg/kg/injection, schedule: Q01DX009 (ip), vehicle: saline with Tween-80) is 151 % of control; the T/C (dose: 0.5 mg/kg/injection, schedule: Q01DX009 (oral), vehicle: Klucel (hydroxypropylcellulose) (HPC)) was 100 % of control. Further, the T/C runs as follows: (dose: 0.5 mg/kg/injection, schedule: Q03HX008 (ip), vehicle: Klucel (hydroxypropylcellulose) (HPC)) 100 % of control; (dose: 0.5 mg/kg/injection, schedule: Q03HX016 (ip), vehicle: Klucel (hydroxypropylcellulose) (HPC)) 100 % of control; (dose: 0.5 mg/kg/injection, schedule: Q03HX024 (ip), vehicle: Klucel (hydroxypropylcellulose) (HPC)) 90 % of control; (dose: 1.0 mg/kg/injection, schedule: Q01DX009 (ip), vehicle: Klucel (hydroxypropylcellulose) (HPC)) 100 % of control; (dose: 1.0 mg/kg/injection, schedule: Q01DX009 (ip), vehicle: distilled water + alcohol) 110 % of control; (dose: 1.0 mg/kg/injection, schedule: Q01DX009 (ip), vehicle: saline with Tween-80) 101 % of control and 109 % of control. The T/C runs as follows: (dose: 1.0 mg/kg/injection, schedule: Q01DX009 (oral), vehicle: Klucel (hydroxypropylcellulose) (HPC)) 100 % of control; (dose: 1.0 mg/kg/injection, schedule: Q03HX008 (ip), vehicle: Klucel (hydroxypropylcellulose) (HPC)) 100 % of control; (dose: 1.0 mg/kg/injection, schedule: Q03HX016 (ip), vehicle: Klucel (hydroxypropylcellulose) (HPC)) 100 % of control; (dose: 1.0 mg/kg/injection, schedule: Q03HX024 (ip), vehicle: Klucel (hydroxypropylcellulose) (HPC)) 95 % of control; (dose: 2.0 mg/kg/injection, schedule: Q01DX001 (ip), vehicle: Klucel (hydroxypropylcellulose) (HPC)) 100 % of control; (dose: 2.0 mg/kg/injection, schedule: Q01DX009 (ip), vehicle: Klucel (hydroxypropylcellulose) (HPC)) 151 % of control. Moreover, the T/C (dose: 2.0 mg/kg/injection, schedule: Q01DX009 (ip), vehicle: saline with Tween-80) is 89 % of control; the T/C (dose: 2.0 mg/kg/injection, schedule: Q01DX009 (oral), vehicle: Klucel (hydroxypropylcellulose) (HPC)) was 100 % of control; the T/C (dose: 2.0 mg/kg/injection, schedule: Q03HX008 (ip), vehicle: Klucel (hydroxypropylcellulose) (HPC)) is 100 % of control; the T/C (dose: 2.0 mg/kg/injection, schedule: Q03HX016 (ip), vehicle: Klucel (hydroxypropylcellulose) (HPC)) is 100 % of control; the T/C (dose: 2.0 mg/kg/injection, schedule: Q03HX024 (ip), vehicle: Klucel (hydroxypropylcellulose) (HPC)) was 95 % of control; the T/C (dose: 2.0 mg/kg/injection, schedule: Q04DX003 (ip), vehicle: Klucel (hydroxypropylcellulose) (HPC)) is 100 % of control. For the same compound, the T/C was 100 % of control (dose: 2.0 mg/kg/injection, schedule: Q08DX002 (ip), vehicle: Klucel (hydroxypropylcellulose) (HPC)); 100 % of control (dose: 4.0 mg/kg/injection, schedule: Q01DX001 (ip), vehicle: Klucel (hydroxypropylcellulose) (HPC)); 100 % of control (dose: 4.0 mg/kg/injection, schedule: Q01DX009 (oral), vehicle: Klucel (hydroxypropylcellulose) (HPC)); 100 % of control (dose: 4.0 mg/kg/injection, schedule: Q04DX003 (ip), vehicle: Klucel (hydroxypropylcellulose) (HPC)); 100 % of control (dose: 4.0 mg/kg/injection, schedule: Q08DX002 (ip), vehicle: Klucel (hydroxypropylcellulose) (HPC)); 100 % of control (dose: 8.0 mg/kg/injection, schedule: Q01DX001 (ip), vehicle: Klucel (hydroxypropylcellulose) (HPC)). The T/C (dose: 8.0 mg/kg/injection, schedule: Q04DX003 (ip), vehicle: Klucel (hydroxypropylcellulose) (HPC)) was 100 % of control; the T/C (dose: 8.0 mg/kg/injection, schedule: Q08DX002 (ip), vehicle: Klucel (hydroxypropylcellulose) (HPC)) was 100 % of control; the T/C (dose: 16.0 mg/kg/injection, schedule: Q01DX001 (ip), vehicle: Klucel (hydroxypropylcellulose) (HPC)) was 100 % of control; the T/C (dose: 16.0 mg/kg/injection, schedule: Q01DX001 (oral), vehicle: Klucel (hydroxypropylcellulose) (HPC)) is 100 % of control; the T/C (dose: 16.0 mg/kg/injection, schedule: Q04DX003 (ip), vehicle: Klucel (hydroxypropylcellulose) (HPC)) is 100 % of control; the T/C (dose: 16.0 mg/kg/injection, schedule: Q08DX002 (ip), vehicle: Klucel (hydroxypropylcellulose) (HPC)) was 104 % of control. The T/C by setting is: (dose: 32.0 mg/kg/injection, schedule: Q01DX001 (oral), vehicle: Klucel (hydroxypropylcellulose) (HPC)) 100 % of control; (dose: 64.0 mg/kg/injection, schedule: Q01DX001 (oral), vehicle: Klucel (hydroxypropylcellulose) (HPC)) 100 % of control; (dose: 128.0 mg/kg/injection, schedule: Q01DX001 (oral), vehicle: Klucel (hydroxypropylcellulose) (HPC)) 100 % of control.
Regarding `O=C1C(C(=Nc2cccc(Br)c2)c2ccccc2)=C(O)c2ccccc21`, the T/C by setting is: (dose: 25.0 mg/kg/injection, schedule: Q04DX002 (ip), vehicle: saline with Tween-80) 96 % of control; (dose: 50.0 mg/kg/injection, schedule: Q04DX002 (ip), vehicle: saline with Tween-80) 100 % of control; (dose: 100.0 mg/kg/injection, schedule: Q04DX002 (ip), vehicle: saline with Tween-80) 99 % of control.
For `Nc1cc2c(c[n+](CCCCCCCCC[n+]3cc4c5ccccc5c(N)cc4c4ccccc43)c3ccccc23)c2ccccc12`, the T/C is, setting by setting: (dose: 0.39 mg/kg/injection, schedule: Q04DX003 (ip), vehicle: other) 150 % of control; (dose: 0.78 mg/kg/injection, schedule: Q04DX003 (ip), vehicle: other) 173 % of control; (dose: 1.56 mg/kg/injection, schedule: Q04DX003 (ip), vehicle: other) 162 % of control; (dose: 3.13 mg/kg/injection, schedule: Q04DX003 (ip), vehicle: other) 173 % of control; (dose: 6.25 mg/kg/injection, schedule: Q04DX003 (ip), vehicle: other) 169 % of control and 191 % of control; (dose: 12.5 mg/kg/injection, schedule: Q04DX003 (ip), vehicle: other) 117 % of control and 95 % of control.
In the case of `c1cc[c]([Bi]([c]2ccccc2)[c]2ccccc2)cc1`, the T/C by setting is: (dose: 12.5 mg/kg/injection, schedule: Q01DX009 (ip), vehicle: Klucel (hydroxypropylcellulose) (HPC)) 103 % of control; (dose: 25.0 mg/kg/injection, schedule: Q01DX009 (ip), vehicle: Klucel (hydroxypropylcellulose) (HPC)) 106 % of control; (dose: 50.0 mg/kg/injection, schedule: Q01DX009 (ip), vehicle: Klucel (hydroxypropylcellulose) (HPC)) 101 % of control and 112 % of control.
On to `CCC1(O)CC(OC2CC(O)C(O)C(C)O2)c2c(O)c3c(c(O)c2C1C(=O)OC)C(=O)c1cccc(O)c1C3=O` (stereo not given), for which the T/C was 104 % of control (dose: 1.56 mg/kg/injection, schedule: Q04DX003 (ip), vehicle: water); 103 % of control (dose: 3.13 mg/kg/injection, schedule: Q04DX003 (ip), vehicle: water); 103 % of control (dose: 6.25 mg/kg/injection, schedule: Q04DX003 (ip), vehicle: water); 109 % of control (dose: 12.5 mg/kg/injection, schedule: Q04DX003 (ip), vehicle: water); 109 % of control (dose: 25.0 mg/kg/injection, schedule: Q04DX003 (ip), vehicle: water); 104 % of control (dose: 50.0 mg/kg/injection, schedule: Q04DX003 (ip), vehicle: water). The T/C is, setting by setting: (dose: 100.0 mg/kg/injection, schedule: Q04DX003 (ip), vehicle: water) 119 % of control; (dose: 200.0 mg/kg/injection, schedule: Q04DX003 (ip), vehicle: water) 109 % of control.
